Measurements reported in paper PMC10687260, “1,3-Diphenylureido hydroxamate as a promising scaffold for generation of potent antimalarial histone deacetylase inhibitors” (Scientific Reports, 2023).

Assays:
Format in all cases: in vitro ADME
Details in all cases: 10 µM
[1] = molecular target: T1, CYP1A2 (Homo sapiens, UniProt P05177); assay: CYP450 inhibition in human liver microsomes, 1A2
T1 construct: 10 μM compound was incubated with human liver microsomes and selective marker substrates; from tissue; host or cells: human liver microsomes
T1 sequence (P05177 1-516): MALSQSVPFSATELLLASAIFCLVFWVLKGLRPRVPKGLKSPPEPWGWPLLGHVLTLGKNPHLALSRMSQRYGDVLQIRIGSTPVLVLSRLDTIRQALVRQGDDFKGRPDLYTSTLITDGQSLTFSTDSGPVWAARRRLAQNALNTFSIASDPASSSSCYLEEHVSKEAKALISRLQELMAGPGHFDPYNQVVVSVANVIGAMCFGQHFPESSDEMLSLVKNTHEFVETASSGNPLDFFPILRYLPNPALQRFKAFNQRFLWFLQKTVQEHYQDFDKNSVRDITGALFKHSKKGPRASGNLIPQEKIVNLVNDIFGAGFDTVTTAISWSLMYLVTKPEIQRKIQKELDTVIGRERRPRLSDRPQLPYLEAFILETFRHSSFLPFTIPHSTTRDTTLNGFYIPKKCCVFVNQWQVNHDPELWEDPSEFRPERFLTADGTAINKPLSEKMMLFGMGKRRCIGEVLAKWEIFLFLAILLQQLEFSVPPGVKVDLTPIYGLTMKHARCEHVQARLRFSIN

[2] = molecular target: T2, CYP450 2D6 (Homo sapiens, UniProt P10635); assay: CYP450 inhibition in human liver microsomes, 2D6
T2 construct: 10 μM compound was incubated with human liver microsomes and selective marker substrates; from tissue; host or cells: human liver microsomes
T2 sequence (P10635 whole entry): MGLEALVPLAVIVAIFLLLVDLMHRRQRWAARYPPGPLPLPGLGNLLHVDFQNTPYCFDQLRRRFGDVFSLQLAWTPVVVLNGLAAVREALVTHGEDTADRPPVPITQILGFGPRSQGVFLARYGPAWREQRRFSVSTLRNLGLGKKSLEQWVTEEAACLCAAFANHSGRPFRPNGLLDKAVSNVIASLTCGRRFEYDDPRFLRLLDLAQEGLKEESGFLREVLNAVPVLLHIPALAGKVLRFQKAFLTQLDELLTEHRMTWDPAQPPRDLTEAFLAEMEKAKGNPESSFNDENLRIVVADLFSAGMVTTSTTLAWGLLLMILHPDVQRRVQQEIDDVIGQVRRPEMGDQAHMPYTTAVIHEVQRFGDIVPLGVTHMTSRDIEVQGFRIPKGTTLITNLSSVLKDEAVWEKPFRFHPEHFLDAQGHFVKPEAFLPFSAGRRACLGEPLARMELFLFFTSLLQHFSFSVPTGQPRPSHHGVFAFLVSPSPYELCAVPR

[3] = molecular target: T3, CYP450 2C9 (Homo sapiens, UniProt P11712); assay: CYP450 inhibition in human liver microsomes, 2C9
T3 construct: 10 μM compound was incubated with human liver microsomes and selective marker substrates; from tissue; host or cells: human liver microsomes
T3 sequence (P11712 whole entry): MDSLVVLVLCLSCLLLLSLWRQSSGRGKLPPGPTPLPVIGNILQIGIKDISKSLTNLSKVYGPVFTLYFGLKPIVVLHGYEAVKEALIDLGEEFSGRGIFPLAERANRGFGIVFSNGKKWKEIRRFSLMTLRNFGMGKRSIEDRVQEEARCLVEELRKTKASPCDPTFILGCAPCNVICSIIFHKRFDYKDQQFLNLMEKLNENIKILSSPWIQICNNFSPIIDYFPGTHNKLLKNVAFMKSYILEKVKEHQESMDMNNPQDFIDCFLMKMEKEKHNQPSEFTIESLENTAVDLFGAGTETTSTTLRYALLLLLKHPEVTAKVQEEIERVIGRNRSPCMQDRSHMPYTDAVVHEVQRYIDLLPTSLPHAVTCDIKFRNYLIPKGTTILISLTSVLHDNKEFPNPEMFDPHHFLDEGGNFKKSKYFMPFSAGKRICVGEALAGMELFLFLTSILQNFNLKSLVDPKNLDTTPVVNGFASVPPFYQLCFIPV

Structure (SMILES): C=C[C@H]1C[N@@]2CC[C@H]1C[C@@H]2[C@@H](O)c1ccnc2ccc(OC)cc12 [Quinidine, reference compound]
- CYP450% inhibition @ 10 µM 1A2 [1]: * (Inhibition < 10%)
- CYP450% inhibition @ 10 µM 2D6 [2]: 89%
- CYP450% inhibition @ 10 µM 2C9 [3]: * (Inhibition < 10%)
